Legend:
SHR = experiment: Systolic blood pressure (tail-cuff) in SHR, drug given continuously for 3 weeks by osmotic pump; assay type: in vivo, rat; conditions: SHR 16 weeks old at start; osmotic pump, continuous 3 weeks; vehicle 221.6
Procedure: The importance of regulating MLCK expression by Ras signaling in vivo was further investigated by treating SHR with U0126 continuously for 3 weeks. U0126 is a specific inhibitor MEK (Favata et al., 1998J. Biol. Chem. 273: 18623-18632), an upstream regulator of ERK in the Ras signaling pathway (Chien & Hoshijima, 2002, Id.). […] In these experiments, Systolic blood pressure (SBP) was measured using tail-cuff sphygmomanometry (IITC Incorporated/Life Sciences Institute, Woodland Hills Calif.). Drugs were delivered via an osmotic pump (DURECT Corporation, Cupertino, Calif.) implanted subcutaneously in the shoulder. The pumps (having a 2 mL capacity at a delivery rate of 2.45 μL/hour) were filled with 13.5 mM U0126 (BIOMOL Research Laboratories, Plymouth Meeting, Pa.) dissolved in 50% DMSO or vehicle alone. Three weeks later, rats were sacrificed and aortas were removed. Some vessels were processed for histology, while other tissue was immediately placed in ice-cold acetone containing 10% trichloroacetic acid (TCA) and 10 mM dithiothreitol (DTT). Endothelial cells were removed by gently rubbing the inside of the vessels with a cell lifter and connective tissue was removed by dissection. The cleaned vessels were then frozen on dry ice and stored at −80° C. for biochemical analysis.
Another experiment was conducted to determine if inhibiting Ras signaling could decrease blood pressure in SHR.

[1] = system: Mm5MT mouse mammary cancer cells; experiment: Apoptosis by FACS (annexin V and PI) in Mm5MT cells; assay type: cell-based
Procedure: (§1) Mm5MT or MLL cells (200,000 cells per well) were seeded in 6-well dishes one day before drug treatment and cultured as described above.
(§2) On the day of the experiment, media was changed to DMEM supplemented with 0.5% FBS and the cells were treated with drugs as defined by the specific experimental protocol. […] At least 10,000 cells were counted per analysis and cells that stained positive for annexin V and PI were judged to be apoptotic.
The cells were then treated with trypsin, washed twice with cold PBS and re-suspended in 100 μl of buffer containing 10 mM Hepes, pH 7.4, 140 mM NaCl and 2.5 mM CaCl2 (binding buffer). Then, 5 μl of FITC-conjugated annexin V (Pharmingen, San Diego, Calif.) and 10 μl of propidium iodide (PI) (50 μg/ml) were added and cells were incubated in the dark at room temperature for 15 min.

[2] = system: MLL rat prostate cancer cells; experiment: Apoptosis by FACS (annexin V and PI) in MLL cells; assay type: cell-based
Procedure: as §1, §2

[3] = system: precancerous mammary alveolar lesions (MAL); experiment: Mouse mammary gland organ culture, DMBA-induced mammary alveolar lesions (MAL); assay type: cell-based
Procedure: To determine the effects of inhibiting MLCK in mammary tumors, an in vitro mammary cancer model was used as follows. Mammary glands obtained from young Balb/c mice that are exposed to 7,12-dimethylbenz(a)anhracene (DMBA) for 24 hours in culture form precancerous lesions in 24 days (Mehta et al., 2000, J Natl Cancer Instit 92:418-23). In this experiment, 70 mammary glands from 35 Balb/c mice were divided into seven groups of 10 glands each and incubated in serum-free medium containing insulin, prolactin (5 μg/ml each), aldosterone and hydrocortisone (1 μg/ml each) for 10 days. DMBA (2 μg/ml) was included in the medium for 24 hours on day 3. The glands were incubated for an additional 14 days in the absence of hormones except insulin. This allows the regression of the normal mammary alveolar structures. […] Chemopreventive agents were included in the medium during the first 10 days. The glands were fixed in formalin and stained with alum carmine and evaluated for MAL. Percent inhibition was calculated by comparing the incidence in the control glands with the treated groups.

MLC-P in Mm5MT cells = experiment: MLC-P by urea/glycerol gel-immunoblotting in Mm5MT cells; assay type: cell-based, mouse; conditions: 10 μM ML-7, 30 μM etoposide or both, 16 hours
Procedure: (§3) MLC-P expression was measured in the cells using urea/glycerol gel-immunoblotting as follows. […] The unphosphoryiated and phosphorylated forms of MLC20 were separated using urea/glycerol PAGE, transferred to nitrocellulose and probed with an affinity purified antibody to MLC20. This antibody recognizes the unphosphoryiated and phosphorylated forms of MLC20. Immunoreactive bands were visualized using enhanced chemiluminescence (ECL) detection reagents (Amersham Pharmacia Biotech, Piscataway, N.J.) (Fazal et al., 2005, Mol Cell Biol 25:6259-66).

MLC-P in MLL cells = experiment: MLC-P by urea/glycerol gel-immunoblotting in MLL cells; assay type: cell-based, rat; conditions: 5 μM ML-7, 30 μM etoposide or both
Procedure: as §3
To determine if ML-7 stimulates the ability of etoposide to induce apoptosis and retard tumor growth widely, the effects of ML-7 and etoposide on MLL prostate cancer cells were determined. In this case, pre-treated MLL cells were grown in culture with 5 μM ML-7 before adding varying concentrations of etoposide from 1 to 1000 μlM.

Mm5MT mammary tumors = conditions: for tumor growth (in words): mice, 27 mM ML-7 osmotic pump or 25 mg/kg etoposide i.p., 4 weeks, only the etoposide effect statistically significant; for tolerability on physical examination: mouse, in vivo
Procedure: To investigate the anticancer activity of ML-7 in vivo, Mm5MT cells were injected into the right flanks of female mice as follows. Mm5MT cells grown in culture were harvested immediately before injection into syngeneic MMTV-C3H/HeM mice. Cells were washed to remove serum and 10^6 cells were resuspended in 100 μl of serum-free DMEM. Healthy, MMTV-free female mice (14-20 weeks old) were anesthetized with ether and 10^6 cells were injected subcutaneously into the right flank. The mice were randomly divided into four groups of five mice, each, and treated with vehicle, ML-7, etoposide or ML-7 plus etoposide. Drug administration was started 1 week after the cells were injected. To deliver ML-7, a small horizontal incision was made in the interscapular area and a 200 μl osmotic pump (Alzet, Cupertino, Calif.) filled with either 27 mM ML-7 in 50% DMSO or 50% DMSO (vehicle control) was implanted and the wound closed. […] When given, 25 mg/kg etoposide was injected intraperitoneally on the first 3 days of every week for 4 weeks (days 7-9, 14-16, 21-23 and 28-30) (Nakamura el al 2003, Cancer Sci 94:119-24). The mice were sacrificed with ether after 4 weeks of drug administration and tumors were removed, weighed and processed for analysis.
Histological analysis of the tumors was conducted as follows. The excised tumours were gently patted dry and weighed using a Mettler digital balance. Tumors were then sectioned into 2 mm slices, fixed in 10% neutral buffered formalin, routinely processed and embedded in paraffin. […] Photomicrographs documenting the entire section were collected and areas of necrotic and viable tumor were determined using the manual tracing tools within MetaMorph 6.2 (Universal Imaging Corporation, Downingtown, Pa.).

MLL prostate tumors = MLL prostate tumors in Copenhagen rats; assay type: in vivo, rat; conditions: for TUNEL positive nuclei in tumors: 300 cells from randomly chosen fields, control 19.2%
Procedure: To test the anticancer effect of ML-7 in a rat prostate cancer model as follows. MLL cells grown in culture as described above were harvested and washed in serum-free Hank's buffer. The cells were suspended in 500 μl serum-free Hank's and 10^6 cells were injected subcutaneously into the right flank of 12-week old male Copenhagen rats anesthetized with ether. […] The rats were randomly divided into four groups, five in each group. The rats received injections of ML-7 or vehicle via the jugular vein every 4 days for 2 weeks. ML-7 was used at the dose of 35 mg/kg. Etoposide was injected intraperitoneal injection (IP) at the maximum tolerant dose of 50 mg/m^2 daily (Muenchen et al., 2000, Anticancer Res 20:735-40), The rats were sacrificed with ether 14 days after the start of drug treatment. The tumors were removed, weighed and processed as described above.
Tumor sections were also examined for apotosis using TUNEL staining Sections were deparaffinized and rehydrated according to standard protocol. Tissue sections were permeabilized by placing slides in 10 mM citrate buffer (pH 6.0) and applying 350W microwave irradiation for 5 min. Tissue sections were then stained with TMR Red-labelled terminal deoxynucleotidyl transferase dUTP nick-end labeling (TUNEL) enzyme reagent using the In Situ Cell Death Detection kit (Roche Molecular Biochemicals, Indianapolis, Ind.) as described by the manufacturer. Sections stained with the labeling solution without the terminal transferase were used as negative control. Tissue sections were finally mounted using Vectashield containing DAPI and examined using a Zeiss LSM 510 laser confocal microscope.

smooth muscle cells = conditions: cited from earlier work

Row | SMILES | systolic blood pressure at the end of the 3-week treatment period (SHR) [mmHg] | apoptosis by ML-7 by itself ([1]; 10 μM ML-7, 0 etoposide) | apoptotic cells (annexin V and PI positive) ([1]; 5-25 μM ML-7, 16 h) | apoptotic cells (annexin V and PI positive) ([2]; 5-25 μM ML-7, 16 h) | inhibition of MAL development ([3]; 0.1 μM, compared to control) | inhibition of MAL development ([3]; 1 μM, compared to a 70% incidence in the control glands) [%] | MLC-P (MLC-P in Mm5MT cells) | MLC-P (MLC-P in MLL cells) | tumor growth (in words) (Mm5MT mammary tumors) | tolerability on physical examination (Mm5MT mammary tumors) | TUNEL positive nuclei in tumors (MLL prostate tumors) | decrease in tumor weight (MLL prostate tumors; Copenhagen rats, ML-7 35 mg/kg every 4 days, etoposide 50 mg/m^2 daily IP, 14 days, vs. vehicle control) [%] | apoptosis in smooth muscle cells (smooth muscle cells) | EC50 ([2]; Rattus norvegicus, with ML-7 (5 μM pretreatment), read-out: concentration of etoposide required for inducing apoptosis in 50% of the cells) [µM] | inhibition of the incidence of lesion formation ([3]; 1 and 10 μM, compared to control)
1 | O=S(=O)(c1cccc2c(I)cccc12)N1CCCNCC1 [ML-7] | 165.0±3.9 | significantly increased | dose-dependent increase | dose-dependent increase | 40% | 58 | decreased | decreased | decreased | tolerated these drugs without visible signs of discomfort | 40,6% | 29.6 | induces apoptosis | – | –
2 | COc1cc([C@@H]2c3cc4c(cc3[C@@H](O[C@@H]3O[C@@H]5CO[C@@H](C)O[C@H]5[C@H](O)[C@H]3O)[C@H]3COC(=O)[C@H]23)OCO4)cc(OC)c1O [etoposide] | – | – | – | – | did not affect | – | decreased | smaller decrease | decreased | tolerated these drugs without visible signs of discomfort | 35.8% | – | – | 68 | 40-46%

Source: patent US20090054328A1, “Reagents and Methods for Modulating Gene Expression Related to Hypertension” (The Board of Trustees of the University of Illinois, priority 2005, published 2009)
